Columns and labels:
Assay in all cases: combination Emax (second highest fraction inhibited in the dose matrix, 72 h); higher = more inhibition; extreme values may be limits of the assay
SK-N-DZ (Neuroblastoma) = test system: SK-N-DZ (Neuroblastoma)
Procedure, shortened: (§1)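 Cell lines in DMEM/F12 or RPMI with 10% FBS were plated in 1536-well plates, held 24 hours at 37°C, 5% CO2, then given two-drug dose matrices for 72 hours (DMSO typically 0.2%). Viability was read by CellTiter-Glo 2.0 luminescence and scaled as inhibition from 0 (vehicle wells) to 1 (blank wells). Combination Emax is the second-highest inhibition in the matrix; Bliss excess is observed combination effect minus expected EA + EB − EA·EB, EA and EB being single-agent effects.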

[1] = test system: TOV-21G (Ovarian Carcinoma)
Procedure, shortened: as §1

[2] = test system: SNU-1 (Gastric Carcinoma)
Procedure, shortened: as §1

[3] = test system: NCI-H1975 (Lung Adenocarcinoma)
Procedure, shortened: as §1

[4] = test system: SCC90 (Head and Neck Carcinoma)
Procedure, shortened: as §1

[5] = test system: BT-474 (Breast Carcinoma)
Procedure, shortened: as §1

[6] = test system: RS4-11 (B-Lymphoblastic Leukemia)
Procedure, shortened: as §1

[7] = test system: OCI-M1 (Acute Myeloid Leukemia)
Procedure, shortened: as §1

[8] = test system: SBC-5 (Small Cell Lung Carcinoma)
Procedure, shortened: as §1

A375 (Melanoma) = test system: A375 (Melanoma)
Procedure, shortened: as §1

[9] = test system: C2BBe1 (Colorectal Carcinoma)
Procedure, shortened: as §1

[10] = test system: JURL-MK1 (Chronic Myelogenous Leukemia)
Procedure, shortened: as §1

[11] = test system: NCI-H2023 (Non-Small Cell Lung Carcinoma)
Procedure, shortened: as §1

[12] = test system: COR-L105 (Lung Adenocarcinoma)
Procedure, shortened: as §1

[13] = test system: NCI-H2009 (Lung Adenocarcinoma)
Procedure, shortened: as §1

[14] = test system: OVKATE (Ovarian Carcinoma)
Procedure, shortened: as §1

NCI-H2452 (Mesothelioma) = test system: NCI-H2452 (Mesothelioma)
Procedure, shortened: as §1

[15] = test system: RPMI-8402 (T-Lymphoblastic Leukemia)
Procedure, shortened: as §1

[16] = test system: NTERA-2-cl-D1 (Other Solid Carcinomas)
Procedure, shortened: as §1

| Structure (SMILES) | combination Emax (SK-N-DZ (Neuroblastoma)) | combination Emax [1] | combination Emax [2] | combination Emax [3] | combination Emax [4] | combination Emax [5] | combination Emax [6] | combination Emax [7] | combination Emax [8] | combination Emax (A375 (Melanoma)) | combination Emax [9] | combination Emax [10] | combination Emax [11] | combination Emax [12] | combination Emax [13] | combination Emax [14] | combination Emax (NCI-H2452 (Mesothelioma)) | combination Emax [15] | combination Emax [16] |
| --- | --- | --- | --- | --- | --- | --- | --- | --- | --- | --- | --- | --- | --- | --- | --- | --- | --- | --- | --- |
| COc1nnc2ccc(N3CCC(c4ccc(OCCN5CCN(C)C(=O)[C@H]5C)cc4)CC3)nn12 [AZD5153] + CN(CC[C@H](CSC1=CC=CC=C1)NC2=C(C=C(C=C2)S(=O)(=O)NC(=O)C3=CC=C(C=C3)N4CCC(CC4)[C@H](C5=CC=CC=C5C6=CC=C(C=C6)Cl)O)S(=O)(=O)C(F)(F)F)CCO [AZD4320] (first compound max 1 µM, 7x7, partner max 1 µM) | 0.922 | 0.807 | 0.8 | 0.643 | 0.588 | 0.531 | 1 | 1 | 0.534 | 0.476 | 0.611 | 0.994 | – | – | – | – | – | – | – |
| Cc1c2c(nn1C)CSCc1cc(n(C)n1)CSc1cc(c3ccccc3c1)OCCCc1c(C(=O)O)n(C)c3c-2c(Cl)ccc13 [AZD5991] + CC1(C)CCC(CN2CCN(c3ccc(C(=O)NS(=O)(=O)c4ccc(NCC5CCOCC5)c([N+](=O)[O-])c4)c(Oc4cnc5[nH]ccc5c4)c3)CC2)=C(c2ccc(Cl)cc2)C1 [Venetoclax] (first compound max 1 µM, 7x7, partner max 1 µM) | 0.479 | 0.209 | 0.933 | 0.378 | 0.934 | 0.351 | 1 | 0.175 | 0.231 | 0.307 | 0.23 | 0.695 | 0.205 | 0.181 | 0.151 | 0.147 | 0.305 | 0.932 | 0.916 |
| CCN(CCO)CCCOc1ccc2c(Nc3cc(CC(=O)Nc4cccc(F)c4)[nH]n3)ncnc2c1 [AZD2811] + O=C(c1cc(Cc2n[nH]c(=O)c3ccccc23)ccc1F)N1CCN(C(=O)C2CC2)CC1 [Olaparib] (first compound max 1 µM, 7x7, partner max 10 µM) | 0.405 | 0.288 | 0.381 | 0.191 | 0.303 | 0.168 | 0.987 | 0.268 | 0.392 | 0.408 | 0.131 | 0.688 | 0.415 | 0.231 | 0.343 | 0.239 | 0.423 | 0.85 | 0.65 |
| CN(C)CCCOc1ccc(-c2ccc3ncc4c(c3c2)n(C2CCOCC2)c(=O)n4C)cn1 [AZD0156] + CCN(CCO)CCCOc1ccc2c(Nc3cc(CC(=O)Nc4cccc(F)c4)[nH]n3)ncnc2c1 [AZD2811] (first compound max 1 µM, 7x7, partner max 1 µM) | 0.391 | 0.266 | 0.434 | 0.3 | 0.231 | 0.0605 | 0.979 | 0.222 | 0.313 | 0.33 | 0.114 | 0.554 | 0.252 | 0.167 | 0.189 | 0.127 | 0.221 | 0.889 | 0.469 |
| CC1(C)CCC(CN2CCN(c3ccc(C(=O)NS(=O)(=O)c4ccc(NCC5CCOCC5)c([N+](=O)[O-])c4)c(Oc4cnc5[nH]ccc5c4)c3)CC2)=C(c2ccc(Cl)cc2)C1 [Venetoclax] + CCN(CCO)CCCOc1ccc2c(Nc3cc(CC(=O)Nc4cccc(F)c4)[nH]n3)ncnc2c1 [AZD2811] (first compound max 1 µM, 7x7, partner max 1 µM) | 0.552 | 0.354 | 0.297 | 0.216 | 0.552 | 0.218 | 1 | 0.276 | 0.266 | 0.371 | 0.214 | 0.445 | 0.378 | 0.211 | 0.236 | 0.153 | 0.259 | 0.735 | 0.831 |
| C[C@@H]1COCCN1c1cc(C2([S@](C)(=N)=O)CC2)nc(-c2ccnc3[nH]ccc23)n1 [AZD6738] + O=C(c1cc(Cc2n[nH]c(=O)c3ccccc23)ccc1F)N1CCN(C(=O)C2CC2)CC1 [Olaparib] (first compound max 10 µM, 7x7, partner max 10 µM) | 0.915 | 0.538 | 0.777 | 0.354 | 0.48 | 0.218 | 0.979 | 0.982 | 0.789 | 0.66 | 0.331 | 0.996 | 0.846 | 0.581 | 0.478 | 0.305 | 0.469 | 1 | 0.894 |
| CCN(CCO)CCCOc1ccc2c(Nc3cc(CC(=O)Nc4cccc(F)c4)[nH]n3)ncnc2c1 [AZD2811] + C[C@@H]1COCCN1C2=NC(=NC(=C2)C3(CC3)[S@](=N)(=O)C)C4=C5C=CNC5=NC=C4 [AZD6738] (first compound max 1 µM, 7x7, partner max 10 µM) | 0.96 | 0.56 | 0.73 | 0.483 | 0.353 | 0.239 | 1 | 0.969 | 0.754 | 0.625 | 0.279 | 1 | 0.818 | 0.45 | 0.431 | 0.344 | 0.431 | 1 | 0.784 |
| Cc1c2c(nn1C)CSCc1cc(n(C)n1)CSc1cc(c3ccccc3c1)OCCCc1c(C(=O)O)n(C)c3c-2c(Cl)ccc13 [AZD5991] + C[C@@H]1COCCN1C2=NC(=NC(=C2)C3(CC3)[S@](=N)(=O)C)C4=C5C=CNC5=NC=C4 [AZD6738] (first compound max 1 µM, 7x7, partner max 10 µM) | 0.931 | 0.798 | 0.794 | 0.664 | 0.928 | 0.334 | 1 | 0.973 | 0.9 | 0.893 | 0.452 | 1 | 0.814 | 0.511 | 0.466 | 0.421 | 0.579 | 0.999 | 0.928 |
| CN(CCO)CC[C@H](CSc1ccccc1)Nc1ccc(S(=O)(=O)NC(=O)c2ccc(N3CCC([C@@H](O)c4ccccc4-c4ccc(Cl)cc4)CC3)cc2)cc1S(=O)(=O)C(F)(F)F [AZD4320] + C1CN(CCC1(C(=O)N[C@@H](CCO)C2=CC=C(C=C2)Cl)N)C3=NC=NC4=C3C=CN4 [Capivasertib] (first compound max 1 µM, 7x7, partner max 3 µM) | 0.705 | 0.688 | 0.412 | 0.558 | 0.836 | 0.254 | 1 | 0.984 | 0.175 | 0.0874 | 0.209 | 0.87 | 0.264 | 0.411 | 0.0559 | 0.24 | 0.202 | 0.961 | 0.409 |
| CN(C)CCCOc1ccc(-c2ccc3ncc4c(c3c2)n(C2CCOCC2)c(=O)n4C)cn1 [AZD0156] + C=CCn1c(=O)c2cnc(Nc3ccc(N4CCN(C)CC4)cc3)nc2n1-c1cccc(C(C)(C)O)n1 [AZD1775] (first compound max 1 µM, partner max 1 µM) | 0.962 | 0.556 | 0.623 | 0.356 | 0.777 | 0.195 | 0.881 | 0.869 | 0.423 | 0.535 | 0.209 | 0.989 | 0.633 | 0.418 | 0.557 | 0.336 | 0.589 | 1 | 0.376 |
| C=CCn1c(=O)c2cnc(Nc3ccc(N4CCN(C)CC4)cc3)nc2n1-c1cccc(C(C)(C)O)n1 [AZD1775] + O=C(c1cc(Cc2n[nH]c(=O)c3ccccc23)ccc1F)N1CCN(C(=O)C2CC2)CC1 [Olaparib] (first compound max 1 µM, partner max 10 µM) | 0.935 | 0.587 | 0.569 | 0.262 | 0.822 | 0.237 | 0.952 | 0.869 | 0.507 | 0.476 | 0.335 | 0.994 | 0.717 | 0.436 | 0.752 | 0.311 | 0.574 | 1 | 0.914 |
| Cc1c2c(nn1C)CSCc1cc(n(C)n1)CSc1cc(c3ccccc3c1)OCCCc1c(C(=O)O)n(C)c3c-2c(Cl)ccc13 [AZD5991] + Cc1cc2ncnn2cc1Nc1ncc2c(n1)n(C1CCOCC1)c(=O)n2C [AZD7648] (first compound max 1 µM, 7x7, partner max 10 µM) | 0.207 | – | 0.485 | 0.46 | 0.937 | 0.301 | 0.501 | 0.145 | 0.419 | 0.331 | 0.356 | 0.773 | 0.441 | 0.33 | 0.147 | 0.284 | 0.409 | 0.836 | 0.662 |
| CC(=O)c1c(C)c2cnc(Nc3ccc(N4CCNCC4)cn3)nc2n(C2CCCC2)c1=O [Palbociclib] + CN(CC[C@H](CSC1=CC=CC=C1)NC2=C(C=C(C=C2)S(=O)(=O)NC(=O)C3=CC=C(C=C3)N4CCC(CC4)[C@H](C5=CC=CC=C5C6=CC=C(C=C6)Cl)O)S(=O)(=O)C(F)(F)F)CCO [AZD4320] (first compound max 10 µM, 7x7, partner max 1 µM) | 0.992 | 0.626 | 0.831 | 0.471 | 0.862 | 0.124 | 1 | 0.994 | 0.251 | 0.373 | 0.318 | 1 | – | – | – | – | – | – | – |

Source: the supplement of paper PMC11061612
